For seven compounds, pest or weed control results are on record in patent publication US20110086759A1, “CHEMICAL COMPOUNDS” (SYNGENTA CROP PROTECTION, INC., priority 2007, published 2011).

Format in all cases: in vivo
Test [1] concerns Alopecurus myosuroides (ALOMY). The experiment in a line: Pre-emergence biological efficacy, glasshouse pot test. To be noted: 312 h. The method in brief:
(§1)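 Damage was rated on a 0–100 scale 13 days after treatment, with plants kept at 24/16° C, 14 h light and 65% humidity. The pre-emergence spray, at 1000 or 250 g/ha in acetone/water 50:50 with 0.5% Tween 20, was applied one day after sowing.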

In test [2] the test system is Amaranthus retoflexus (AMARE). The test is described as above. To be noted: Amaranthus retroflexus, 312 h. The method in brief: as §1
Test [3] has as its system Echinochloa crus-galli (ECHCG). The test is described as above. To be noted: 312 h. The method in brief: as §1
The test system of test [4] is Ipomea hederaceae (IPOHE). The description is as above. The settings on record: Ipomoea hederacea, 312 h. The method in brief:
as §1

The test system of test [5] is Setaria faberi (SETFA). The test is described as above. To be noted: 312 h. The method in brief:
as §1

The subject of test [6] is Solanum nigrum (SOLNI). Described as above. The settings on record: 312 h. The method in brief: as §1
For test [7], the system named is Alopecurus myosuroides (ALOMY). The experiment in a line: Post-emergence biological efficacy, glasshouse pot test. The settings on record: 312 h. The method in brief: (§2)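 Scored 13 days after spraying on a 0 (no damage) to 100 (total damage) scale. Treatment was a post-emergence spray at 1000 or 250 g/ha, from acetone/water 50:50 plus 0.5% Tween 20, onto 8-day-old plants in soil pots. Growth at 24/16° C, 14 h photoperiod, 65% humidity, watered twice daily.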

Test [8] has as its system Amaranthus retoflexus (AMARE). Described as above. The settings on record: Amaranthus retroflexus, 312 h. A digest of the protocol:
as §2

The test system of test [9] is Echinochloa crus-galli (ECHCG). The description is as above. To be noted: 312 h. The method in brief:
as §2

The test system of test [10] is Ipomea hederaceae (IPOHE). The description is as above. The settings on record: Ipomoea hederacea, 312 h. A digest of the protocol:
as §2

Test [11] has as its system Setaria faberi (SETFA). The test is described as above. To be noted: 312 h. A digest of the protocol: as §2
The test system of test [12] is Solanum nigrum (SOLNI). The description is as above. The settings on record: 312 h. The method in brief:
as §2

[13] abbreviates: pre-emergence, rate 1,000 g/ha, evaluated after 13 days (100=total damage to plant; 0=no damage), read-out: Percentage damage caused to weed species, ALOMY.
[14] abbreviates: pre-emergence, rate 1,000 g/ha, evaluated after 13 days (100=total damage to plant; 0=no damage), read-out: Percentage damage caused to weed species, AMARE.
[15] abbreviates: pre-emergence, rate 1,000 g/ha, evaluated after 13 days (100=total damage to plant; 0=no damage), read-out: Percentage damage caused to weed species, ECHCG.
Setting [16] is: pre-emergence, rate 1,000 g/ha, evaluated after 13 days (100=total damage to plant; 0=no damage), read-out: Percentage damage caused to weed species, IPOHE.
[17] abbreviates: pre-emergence, rate 1,000 g/ha, evaluated after 13 days (100=total damage to plant; 0=no damage), read-out: Percentage damage caused to weed species, SETFA.
The mark [18] stands for this setting: pre-emergence, rate 1,000 g/ha, evaluated after 13 days (100=total damage to plant; 0=no damage), read-out: Percentage damage caused to weed species, SOLNI.
[19] abbreviates: Rate 1,000 g/ha, post-emergence spray, evaluated after 13 days (100=total damage to plant; 0=no damage to plant), read-out: Percentage damage caused to weed species, post-emergence, ALOMY.
[20] abbreviates: Rate 1,000 g/ha, post-emergence spray, evaluated after 13 days (100=total damage to plant; 0=no damage to plant), read-out: Percentage damage caused to weed species, post-emergence, AMARE.
[21] abbreviates: Rate 1,000 g/ha, post-emergence spray, evaluated after 13 days (100=total damage to plant; 0=no damage to plant), read-out: Percentage damage caused to weed species, post-emergence, ECHCG.
Setting [22] is: Rate 1,000 g/ha, post-emergence spray, evaluated after 13 days (100=total damage to plant; 0=no damage to plant), read-out: Percentage damage caused to weed species, post-emergence, IPOHE.
Setting [23] is: Rate 1,000 g/ha, post-emergence spray, evaluated after 13 days (100=total damage to plant; 0=no damage to plant), read-out: Percentage damage caused to weed species, post-emergence, SETFA.
Where [24] appears, read: Rate 1,000 g/ha, post-emergence spray, evaluated after 13 days (100=total damage to plant; 0=no damage to plant), read-out: Percentage damage caused to weed species, post-emergence, SOLNI.
The mark [25] stands for this setting: pre-emergence, 1,000 g/ha, evaluated after 13 days (100=total damage; 0=no damage), read-out: Percentage damage ALOMY.
Setting [26] is: pre-emergence, 1,000 g/ha, evaluated after 13 days (100=total damage; 0=no damage), read-out: Percentage damage AMARE.
Where [27] appears, read: pre-emergence, 1,000 g/ha, evaluated after 13 days (100=total damage; 0=no damage), read-out: Percentage damage ECHCG.
[28] abbreviates: pre-emergence, 1,000 g/ha, evaluated after 13 days (100=total damage; 0=no damage), read-out: Percentage damage IPOHE.
Setting [29] is: pre-emergence, 1,000 g/ha, evaluated after 13 days (100=total damage; 0=no damage), read-out: Percentage damage SETFA.
Where [30] appears, read: pre-emergence, 1,000 g/ha, evaluated after 13 days (100=total damage; 0=no damage), read-out: Percentage damage SOLNI.
[31] abbreviates: post-emergence, 1,000 g/ha, evaluated after 13 days (100=total damage; 0=no damage), read-out: Percentage damage caused to weed species, ALOMY.
The mark [32] stands for this setting: post-emergence, 1,000 g/ha, evaluated after 13 days (100=total damage; 0=no damage), read-out: Percentage damage caused to weed species, AMARE.
[33] abbreviates: post-emergence, 1,000 g/ha, evaluated after 13 days (100=total damage; 0=no damage), read-out: Percentage damage caused to weed species, ECHCG.
Where [34] appears, read: post-emergence, 1,000 g/ha, evaluated after 13 days (100=total damage; 0=no damage), read-out: Percentage damage caused to weed species, IPOHE.
Setting [35] is: post-emergence, 1,000 g/ha, evaluated after 13 days (100=total damage; 0=no damage), read-out: Percentage damage caused to weed species, SETFA.
Where [36] appears, read: post-emergence, 1,000 g/ha, evaluated after 13 days (100=total damage; 0=no damage), read-out: Percentage damage caused to weed species, SOLNI.

In the case of `COC(=O)c1nc(-c2ccc(F)cc2)nc(NCc2ccco2)c1Cl` [Compound 242-48, 5-Chloro-2-(4-fluorophenyl)-4-(furan-2-yl-methyl-amino)-6-methoxy-carbonylpyrimidine], the pest or weed control at 1000 g/ha in test [1] (setting [13]) turned out to be 10%; in test [2] (setting [14]), 100%; in test [3] (setting [15]), 0%; in [4] (setting [16]) it was 20%; in test [5] (setting [17]), 0%; in [6] (setting [18]) it was 20%. Also, the pest or weed control at 1000 g/ha turned out to be 20% in test [7] (setting [19]); 100% in [8] (setting [20]); 20% in test [9] (setting [21]); 60% in test [10] (setting [22]); 20% in test [11] (setting [23]); 50% in test [12] (setting [24]).

As to `COC(=O)c1nc(C2CC2)nc(NCCc2ccc(S(N)(=O)=O)cc2)c1Cl` [Compound 4-222, 4-[2-(4-Amino-sulphonylphenyl)-ethylamino]-5-chloro-2-cyclo-propyl-6-methoxy-carbonylpyrimidine], the pest or weed control at 1000 g/ha in test [1] (setting [25]) was found to be 0%; in test [2] (setting [26]), 30%; in [3] (setting [27]) it was 0%; in test [4] (setting [28]), 10%; in test [5] (setting [29]), 0%; in test [6] (setting [30]), 0%. The pest or weed control at 1000 g/ha in [7] (setting [31]) stood at 0%; in test [8] (setting [32]), 30%; in test [9] (setting [33]), 0%; in test [10] (setting [34]), 60%; in test [11] (setting [35]) it was 0%; in test [12] (setting [36]), 20%.

On to `COC(=O)c1nc(-c2ccc(OC)c(Cl)c2)nc(NCc2ccco2)c1Cl` [Compound 254-48, 5-Chloro-2-(3-chloro-4-methoxyphenyl)-4-(furan-2-yl-methyl-amino)-6-methoxy-carbonylpyrimidine], for which the pest or weed control at 1000 g/ha in test [1] (setting [13]), in [2] (setting [14]), in test [3] (setting [15]), in [4] (setting [16]), in test [5] (setting [17]) and in test [6] (setting [18]) was 0% in each case. In addition, the pest or weed control at 1000 g/ha came to 0% in test [7] (setting [19]); 20% in test [8] (setting [20]); 0% in [9] (setting [21]); 10% in test [10] (setting [22]); 0% in test [11] (setting [23]); 30% in test [12] (setting [24]).

Regarding `COC(=O)c1nc(C2CC2)nc(NCC(C)c2ccc(Cl)cc2)c1Cl` (stereo not drawn) [Compound 4-233, 5-Chloro-4-[2-(4-chlorophenyl)propyl-amino]-2-cyclopropyl-6-methoxycarbonyl-pyrimidine], the pest or weed control at 1000 g/ha in test [1] (setting [25]) came out at 0%; in test [2] (setting [26]) it was 40%; in [3] (setting [27]), 0%; in [4] (setting [28]) it was 10%; in test [5] (setting [29]), 0%; in [6] (setting [30]), 20%. For the same compound, the pest or weed control at 1000 g/ha in test [7] (setting [31]) was found to be 10%; in [8] (setting [32]), 100%; in test [9] (setting [33]), 20%; in test [10] (setting [34]) it was 60%; in test [11] (setting [35]), 50%; in test [12] (setting [36]), 80%.

`COC(=O)c1nc(C2CC2)nc(NC2(c3ccccn3)CC2)c1Cl` [Compound 4-10, 5-Chloro-2-cyclopropyl-6-methoxycarbonyl-4-(1-pyrid-2-ylcyclo-propylamino)-pyrimidine]: the pest or weed control at 1000 g/ha was 0% in [1] (setting [25]); 30% in [2] (setting [26]); 0% in [3] (setting [27]); 80% in test [4] (setting [28]); 0% in test [5] (setting [29]); 20% in test [6] (setting [30]). The pest or weed control at 1000 g/ha in [7] (setting [31]) amounted to 20%; in [8] (setting [32]) it was 60%; in test [9] (setting [33]), 0%; in test [10] (setting [34]) it was 50%; in test [11] (setting [35]), 0%; in test [12] (setting [36]), 40%.

For the compound `COC(=O)c1nc(C2CC2)nc(NC(CO)c2ccccc2)c1Cl` (stereo not drawn) [Compound 4-203, 5-Chloro-2-cyclopropyl-4-(2-hydroxy-1-phenyl-ethylamino)-6-methoxycarbonyl-pyrimidine], the pest or weed control at 1000 g/ha in test [1] (setting [25]) stood at 30%; in [2] (setting [26]), 100%; in test [3] (setting [27]), 60%; in test [4] (setting [28]), 100%; in test [5] (setting [29]) it was 60%; in [6] (setting [30]), 80%. Besides, the pest or weed control at 1000 g/ha in test [7] (setting [31]) was 40%; in test [8] (setting [32]), 100%; in [9] (setting [33]), 30%; in test [10] (setting [34]), 50%; in test [11] (setting [35]), 40%; in test [12] (setting [36]), 80%.

With `COC(=O)c1nc(C2CC2)nc(NCCSCc2c(Cl)cccc2Cl)c1Cl` [Compound 4-263, 5-Chloro-2-cyclopropyl-4-{2-[(2,6-dichloro-phenyl)methylthio]-ethylamino}-6-methoxycarbonyl-pyrimidine], the pest or weed control at 1000 g/ha in test [1] (setting [25]) came out at 0%; in [2] (setting [26]), 30%; in test [3] (setting [27]), 0%; in [4] (setting [28]), 30%; in test [5] (setting [29]), 0%; in test [6] (setting [30]) it was 10%. In addition, the pest or weed control at 1000 g/ha in [7] (setting [31]) worked out at 0%; in [8] (setting [32]), 90%; in [9] (setting [33]), 0%; in [10] (setting [34]), 50%; in [11] (setting [35]), 30%; in test [12] (setting [36]), 60%.
